Measured values as given in a compilation of properties of binary mixtures (doi:10.1021/acs.jpcb.9b04724).

Experiment: xn = mol fraction of the nth substance listed
Details: 101 kPa

CC[n+]1ccn(C)c1.N#C[N-]C#N + CCCC[N+](C)(CCCC)CCCC.N#C[N-]C#N
x1 = 1
Details | viscosity [mPa·s]
293.15 K | 17.41
313.15 K | 10.05
333.15 K | 6.65

CCCC[N+](C)(CCCC)CCCC.N#C[N-]C#N + CC[n+]1ccn(C)c1.N#C[N-]C#N
viscosity [mPa·s]
Details | 293.15 K | 303.15 K | 313.15 K | 323.15 K | 333.15 K | 343.15 K | 353.15 K
x2 = 0 | 498 | 239 | 127.3 | 74.9 | 47.6 | 32 | 22.6
x2 = 0.2114 | 201 | – | 65.2 | 42.1 | 28.7 | – | –
x2 = 0.3975 | 101.3 | 60.6 | 39.2 | 26.8 | – | 14.44 | –
x2 = 0.6047 | 50.5 | – | 22.87 | 16.69 | 12.65 | 10.13 | 8.18
x2 = 0.8003 | 28.3 | 19.8 | 14.56 | 11.15 | 9.11 | 7.26 | 5.93
